Data taken from patent US20190374557A1, “Cyclobutyl (S)-2-[[[(R)-2-(6-aminopurin-9-yl)-1-methyl-ethoxy]methyl-phenoxy-phosphoryl]amino]-propanoates, and production process and application thereof” (ALLA CHEM, LLC, priority 2017, published 2019).

How the values were obtained:
[1] = tested on: HIV strain NL4.3 carrying a gene encoding the green fluorescent protein (NL4.3-GFP); details: SupT1 cells
[2] = in vitro; details: human, uninfected SupT1 cells (T-lymphocyte line)
[3] = tested on: HIV strain NL4.3 carrying a gene encoding the green fluorescent protein (NL4.3-GFP); test: microbe, parasite or virus in culture; details: Human immunodeficiency virus 1, SUP-T1, 45 h, read-out: Activity (EC50)

CC(C)OC(=O)[C@H](C)N[P@](=O)(CO[C@H](C)Cn1cnc2c(N)ncnc21)Oc1ccccc1 [TAF, tenofovir alafenamide]
selectivity index SI = CC50/EC50 [1]: 2857 | CC50 [2]: > 100000 nM | EC50 [3]: 35 nM
